How the values were obtained:
Assay in all cases: relative viability (nuclei count vs DMSO), 5 days (fraction); higher = more cells survive
Carboplatin = compound: C1CC(C1)(C(=O)O)C(=O)O.[NH2-].[NH2-].[Pt+2] [Carboplatin]
Summary of the method: (§1)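 MetaXpress counted nuclei in 4× images of lung cancer cell lines that had been fixed, permeabilised and Hoechst-stained in one step. Before that, cells in 1536-well plates were kept overnight at 37 °C, pinned with five √10-spaced library-drug doses on vehicle-anchored plates, and cultured 5 days without medium change. Viability takes treated-well nuclei over vehicle-well nuclei and uses the median across plates. Plates were accepted only at control CV below 25% and at least one doubling.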

MLN4924 = compound: NS(=O)(=O)OC[C@@H]1C[C@@H](n2ccc3c(N[C@H]4CCc5ccccc54)ncnc32)C[C@@H]1O [MLN4924]
Summary of the method: as §1

GSK126 = compound: CC[C@H](C)N1C=C(C2=C(C=C(C=C21)C3=CN=C(C=C3)N4CCNCC4)C(=O)NCC5=C(C=C(NC5=O)C)C)C [GSK126]
Summary of the method: as §1

Carboplatin + Alpelisib = compound: C1CC(C1)(C(=O)O)C(=O)O.[NH2-].[NH2-].[Pt+2] [Carboplatin] + Cc1nc(NC(=O)N2CCC[C@H]2C(N)=O)sc1-c1ccnc(C(C)(C)C(F)(F)F)c1 [Alpelisib] (partner 2 µM)
Summary of the method: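 Lung cancer cell lines in 1536-well plates got either a single drug or a fixed anchor-drug dose together with five library-drug doses (not always all listed) in √10 steps, by pin tool, on the day after seeding. Nuclei were counted after 5 days, and relative viability is the treated-to-vehicle ratio of nuclei counts. Values are medians of duplicate plates.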

| Cell Line | relative viability (Carboplatin; 0.08 µM) | relative viability (Carboplatin; 0.253 µM) | relative viability (Carboplatin; 0.8 µM) | relative viability (Carboplatin; 2.53 µM) | relative viability (Carboplatin; 8 µM) | relative viability (MLN4924; 0.04 µM) | relative viability (MLN4924; 0.1265 µM) | relative viability (MLN4924; 0.4 µM) | relative viability (MLN4924; 1.265 µM) | relative viability (MLN4924; 4 µM) | relative viability (GSK126; 0.08 µM) | relative viability (GSK126; 0.253 µM) | relative viability (GSK126; 0.8 µM) | relative viability (GSK126; 2.53 µM) | relative viability (GSK126; 8 µM) | relative viability (Carboplatin + Alpelisib; first compound 0.08 µM) | relative viability (Carboplatin + Alpelisib; first compound 0.253 µM) | relative viability (Carboplatin + Alpelisib; first compound 0.8 µM) | relative viability (Carboplatin + Alpelisib; first compound 2.53 µM) | relative viability (Carboplatin + Alpelisib; first compound 8 µM) |
| --- | --- | --- | --- | --- | --- | --- | --- | --- | --- | --- | --- | --- | --- | --- | --- | --- | --- | --- | --- | --- |
| NCI-H838 | 1.03 | 1.03 | 0.949 | 0.921 | 0.951 | 0.93 | 0.488 | 0.325 | 0.158 | 0.219 | 1.01 | 0.919 | 0.913 | 0.971 | 0.926 | 1.09 | 1.07 | 0.953 | 0.995 | 0.979 |
| NCI-H1755 | 1.05 | 1.03 | 1.04 | 1 | 0.966 | 0.954 | 0.905 | 0.547 | 0.255 | 0.198 | 1.04 | 1.06 | 0.978 | 1 | 1.06 | 0.928 | 0.894 | 0.97 | 0.932 | 0.894 |
| NCI-H1651 | 0.996 | 1.01 | 0.948 | 0.861 | 0.679 | 1.02 | 1.04 | 0.967 | 0.503 | 0.202 | 1.09 | 0.957 | 0.956 | 1.05 | 1.09 | 0.846 | 1.1 | 0.907 | 0.876 | 0.573 |
| NCI-H650 | 0.988 | 0.874 | 0.959 | 0.864 | 0.668 | 0.618 | 0.668 | 0.268 | 0.183 | 0.194 | 0.991 | 0.962 | 0.939 | 0.914 | 1.03 | 1.13 | 1 | 1.06 | 0.856 | 0.757 |
| LK-2 | 1.11 | 0.943 | 0.947 | 0.937 | 1.06 | 0.971 | 0.787 | 0.618 | 0.245 | 0.239 | 1.01 | 0.988 | 0.985 | 1.08 | 0.994 | 1.41 | 1.23 | 0.837 | 0.961 | 1.09 |
| HCC-366 | 1.04 | 0.974 | 1.03 | 1.02 | 0.95 | 1.05 | 1.02 | 0.674 | 0.228 | 0.0735 | 1.12 | 1.03 | 1.02 | 1.01 | 1 | 0.476 | 0.552 | 0.344 | 0.294 | 0.314 |
| PC-14 | 1.09 | 0.998 | 0.997 | 0.684 | 0.309 | 1.04 | 0.93 | 0.624 | 0.153 | 0.111 | 1.02 | 1.01 | 0.935 | 1.03 | 0.942 | 0.992 | 0.838 | 0.875 | 0.883 | 0.711 |
| IA-LM | 1.08 | 1.06 | 0.927 | 0.835 | 0.778 | 0.573 | 0.29 | 0.14 | 0.0648 | 0.0764 | 1.04 | 0.906 | 0.925 | 0.997 | 0.894 | 0.995 | 0.904 | 0.669 | 0.881 | 0.465 |
